Experimental data from the OligoGym collection.
Where “and” joins values, the source holds several entries; their conditions need not be identical. Equal entries are not always repeated. After the bases stand the sugars from the 5' end (letter, count) and the backbone: PS all phosphorothioate, else s phosphorothioate and o phosphodiester by linkage. HELM strings list units from the 5' end as sugar, base in round brackets, then linkage (d deoxyribose, r ribose, m 2'-O-methyl, p phosphodiester). Methylation of C is not given here. [mop] = methoxypropylphosphonate linkage; [moe] = 2'-O-(2-methoxyethyl) (MOE); [sp] = phosphorothioate linkage; e = 2'-O-(2-methoxyethyl) (MOE); k = constrained ethyl (cEt); d = 2'-deoxy (DNA); m = 2'-O-methyl

What was measured:
[1] = molecular target: HBV; settings: ASO, HepG2, 0.07 µM
[2] = molecular target: IRF5; settings: ASO

Row | Substance | target mRNA inhibition ([2]; KARPAS-229, 4 µM) | also measured
1 | RNA1{[moe](C)[sp].[moe](G)[sp].d(C)[sp].d(A)[sp].d(G)[sp].d(T)[sp].d(A)[sp].d(T)[sp].d(G)[sp].d(G)[sp].d(A)[sp].[moe](T)[sp].[moe](C)[sp].[moe](G)[sp].[moe](G)[sp].[moe](C)[sp].[moe](A)}$$$$V2.0 |  | target mRNA inhibition [1]: 82% and 80%
2 | RNA1{[moe](G)[sp].[moe](A)[sp].[moe](T)[sp].[moe](G)[sp].d(A)[sp].d(G)[sp].d(G)[sp].d(C)[sp].d(A)[sp].d(T)[sp].d(A)[sp].d(G)[sp].d(C)[sp].[moe](A)[sp].[moe](G)[sp].[moe](C)[sp].[moe](A)}$$$$V2.0 |  | target mRNA inhibition [1]: 0% and 13%
3 | TCTTGACCTCCCGCTG (sugars kdddddddddkekeke, PS) | 40% | 
4 | ACCATTCTATGCCTTT (sugars k3 d10 k3, PS) | 70% and 74% | target mRNA inhibition ([2]; KARPAS-229, 0.44444 µM): 44%; target mRNA inhibition ([2]; KARPAS-229, 1.33333 µM): 60%; target mRNA inhibition ([2]; KARPAS-229, 12 µM): 86%
5 | CGGTCTTTGAGGTCTG (sugars kkkdddddddddkeke, PS) | 38% | 
6 | CCTTCTGCAGGGAGTC (sugars kkdddddddddkekek, PS) | 0% | 
7 | GGTCTTTGAGGTCTGG (sugars k2 d9 e3 k2, PS) | 74% and 69% | target mRNA inhibition ([2]; KARPAS-229, 0.44444 µM): 22%; target mRNA inhibition ([2]; KARPAS-229, 1.33333 µM): 58%; target mRNA inhibition ([2]; KARPAS-229, 12 µM): 79%
8 | GGAAGTGAGTCTCAAA (sugars k3 d9 k3 e1, PS) | 49% and 71% | target mRNA inhibition ([2]; KARPAS-229, 0.44444 µM): 21%; target mRNA inhibition ([2]; KARPAS-229, 1.33333 µM): 13%; target mRNA inhibition ([2]; KARPAS-229, 12 µM): 76%
9 | TGAGTCTCAAACCAGG (sugars k2 d9 e3 k2, PS) | 0% | 
10 | AGGGTGAGTAGGACGA (sugars k3 d10 k3, PS) | 19% | 
11 | GTCTTGACCTCCCGCT (sugars kkkddddddddkekek, PS) | 23% | 
12 | GCACTGACACAGGCGG (sugars kdddddddddkekeke, PS) | 0% | 
13 | AAGGGCACAGCGCAGG (sugars kkkdddddddddkeke, PS) | 0% | 
14 | AGGGCACAGCGCAGGT (sugars k3 d10 k3, PS) | 2% | 
15 | TGTTGAATTTTGTGAC (sugars k3 d10 k3, PS) | 26% | 
16 | ACCATTCTATGCCTTT (sugars kdddddddddkekeke, PS) | 10% | 
17 | GGTGTATTTCCCTGTC (sugars kkdddddddddkekek, PS) | 26% | 
18 | TTCTTGGACTCTCAAG (sugars kddddddddddkekek, PS) | 0% | 
19 | CATCTCCACATCAGTC (sugars kddddddddddkekek, PS) | 25% | 
20 | GCACTGACACAGGCGG (sugars kkddddddddkekekk, PS) | 0% | 

Row | Substance | target mRNA inhibition ([2]; KARPAS-229, 4 µM) | also measured
21 | TGTCTAGTGTCATGGA (sugars kkdkdddddddeeekk, PS) |  | target mRNA inhibition ([2]; A-431, 0.00412 µM): 0%; target mRNA inhibition ([2]; A-431, 0.01225 µM): 5%; target mRNA inhibition ([2]; A-431, 0.03704 µM): 6%; target mRNA inhibition ([2]; A-431, 0.11111 µM): 24%; target mRNA inhibition ([2]; A-431, 0.33333 µM): 23%; target mRNA inhibition ([2]; A-431, 1 µM): 41%
22 | GGTGTATTTCCCTGTC (sugars kekdddddddddeekk, PS) | 5% | 
23 | AGGTTCTTGGACTCTC (sugars kkddddddddkekekk, PS) | 0% | 
24 | CAATGCAACATCCATC (sugars k3 d10 k3, PS) | 0% | 
25 | GTGTATTTCCCTGTCT (sugars kkddddddddddkeke, PS) | 0% | 
26 | GTGAGTCTCAAACCAG (sugars kekdddddddddeekk, PS) | 22% | 
27 | GGAGTGAGACGAGCAA (sugars kkdddddddddkdkdk, PS) | 16% | 
28 | GAGTCATGGGCTGAGG (sugars kkddddddddkekekk, PS) | 0% | 
29 | CCTCATGAGTAATAGG (sugars k3 d10 k3, PS) | 0% | 
30 | TGCTCTAAACCATTCT (sugars k3 d10 k3, PS) | 0% | 
31 | AATAGGAGTGAGACGA (sugars k3 d10 k3, PS) | 25% | 
32 | TCTGAUATGATACCTA (sugars k3 d2 m1 d7 k3, PS) |  | target mRNA inhibition ([2]; A-431, 0.00412 µM): 0%; target mRNA inhibition ([2]; A-431, 0.01225 µM): 12%; target mRNA inhibition ([2]; A-431, 0.03704 µM): 35%; target mRNA inhibition ([2]; A-431, 0.11111 µM): 58%; target mRNA inhibition ([2]; A-431, 0.33333 µM): 79%; target mRNA inhibition ([2]; A-431, 1 µM): 83%
33 | CTGACACAGGCGGATG (sugars kddddddddddkekek, PS) | 0% | 
34 | CATTCCATATACACAC (sugars k2 d8 e4 k2, PS) | 21% | 
35 | CCAATTTTGCATTCCA (sugars kkdddddddddkekek, PS) | 11% | 
36 | CCAATGCAACATCCAT (sugars kkddddddddddkeke, PS) | 0% | 
37 | GGTCTTGACCTCCCGC (sugars kkkddddddddkdkdk, PS) | 4% | 
38 | AGGAAGTGAGTCTCAA (sugars kkddddddddkekekk, PS) | 20% | 
39 | CACTGACACAGGCGGA (sugars kkddddddddddkeke, PS) | 0% | 
40 | TTATTTCTGCTCCAGG (sugars kkkddddddddkdkdk, PS) | 57% and 67% | target mRNA inhibition ([2]; KARPAS-229, 0.44444 µM): 42%; target mRNA inhibition ([2]; KARPAS-229, 1.33333 µM): 62%; target mRNA inhibition ([2]; KARPAS-229, 12 µM): 79%

Row | Substance | target mRNA inhibition ([2]; KARPAS-229, 4 µM) | also measured
41 | CATTCCATATACACAC (sugars kkkdddddddddkeke, PS) | 28% | 
42 | GGGCACAGCGCCAGGTT (sugars kddddddddddkekekd, PS) | 37% and 62% | target mRNA inhibition ([2]; KARPAS-229, 0.44444 µM): 23%; target mRNA inhibition ([2]; KARPAS-229, 1.33333 µM): 40%; target mRNA inhibition ([2]; KARPAS-229, 12 µM): 87%
43 | ATCACCACTGTGTACC (sugars kdddddddddkekeke, PS) | 0% | 
44 | CCCAATGCAACATCCA (sugars kdddddddddkekeke, PS) | 0% | 
45 | CTTGGTCTTGACCTCC (sugars kkkdddddddddkeke, PS) | 15% | 
46 | ATGAGTCATGGGCTGA (sugars kkddddddddkekekk, PS) | 0% | 
47 | TGTCTAGTGTCATGGA (sugars k2 d9 e3 k2, linkages s3 [mop]1 s11) |  | target mRNA inhibition ([2]; A-431, 0.00412 µM): 0%; target mRNA inhibition ([2]; A-431, 0.01225 µM): 15%; target mRNA inhibition ([2]; A-431, 0.03704 µM): 10%; target mRNA inhibition ([2]; A-431, 0.11111 µM): 39%; target mRNA inhibition ([2]; A-431, 0.33333 µM): 58%; target mRNA inhibition ([2]; A-431, 1 µM): 75%
48 | GGAAGTGAGTCTCAAA (sugars kkddddddddkekekk, PS) | 36% | 
49 | GCTTGGTCTTGACCTC (sugars k2 d9 e3 k2, PS) | 10% | 
50 | ATGAGTCATGGGCTGA (sugars kekddddddddkeekk, PS) | 0% | 
51 | GTCTGGCCCTTTTGGA (sugars k3 d9 k3 e1, PS) | 0% | 
52 | GATGGTGTTATCTCCG (sugars k2 d8 e4 k2, PS) | 0% | 
53 | CGGTCTTTGAGGTCTG (sugars kdddddddddkekeke, PS) | 40% | 
54 | TTATCTCCGTCCTGGC (sugars kkddddddddddkeke, PS) | 0% | 
55 | GAGTCTCAAACCAGGG (sugars kddddddddddkekek, PS) | 0% | 
56 | GTTCTTGGACTCTCAA (sugars k2 d9 e3 k2, PS) | 22% | 
57 | TATTTCTGCTCCAGGT (sugars k2 d8 e4 k2, PS) | 43% | 
58 | CCAATTTTGCATTCCA (sugars kkddddddddddkeke, PS) | 75% and 57% | target mRNA inhibition ([2]; KARPAS-229, 0.44444 µM): 47%; target mRNA inhibition ([2]; KARPAS-229, 1.33333 µM): 66%; target mRNA inhibition ([2]; KARPAS-229, 12 µM): 82%
